According to ChEMBL document CHEMBL3593218, “4,6-Substituted-1,3,5-triazin-2(1H)-ones as monocyclic catalytic inhibitors of human DNA topoisomerase IIα targeting the ATP binding site” (Bioorg Med Chem, 2015):
“And” between values parts separate entries of the source, which are not always exact repeats. Equal values may be shown once. Blank lines part the entries; values can stand above or below the compound they belong to.

Assays:
[1] = biological target: T1, DNA topoisomerase 2-alpha (Homo sapiens, UniProt P11388); experiment: Inhibition of human DNA topoisomerase IIalpha using plasmid pNO1 as a substrate after 30 mins
T1 sequence (P11388 whole entry): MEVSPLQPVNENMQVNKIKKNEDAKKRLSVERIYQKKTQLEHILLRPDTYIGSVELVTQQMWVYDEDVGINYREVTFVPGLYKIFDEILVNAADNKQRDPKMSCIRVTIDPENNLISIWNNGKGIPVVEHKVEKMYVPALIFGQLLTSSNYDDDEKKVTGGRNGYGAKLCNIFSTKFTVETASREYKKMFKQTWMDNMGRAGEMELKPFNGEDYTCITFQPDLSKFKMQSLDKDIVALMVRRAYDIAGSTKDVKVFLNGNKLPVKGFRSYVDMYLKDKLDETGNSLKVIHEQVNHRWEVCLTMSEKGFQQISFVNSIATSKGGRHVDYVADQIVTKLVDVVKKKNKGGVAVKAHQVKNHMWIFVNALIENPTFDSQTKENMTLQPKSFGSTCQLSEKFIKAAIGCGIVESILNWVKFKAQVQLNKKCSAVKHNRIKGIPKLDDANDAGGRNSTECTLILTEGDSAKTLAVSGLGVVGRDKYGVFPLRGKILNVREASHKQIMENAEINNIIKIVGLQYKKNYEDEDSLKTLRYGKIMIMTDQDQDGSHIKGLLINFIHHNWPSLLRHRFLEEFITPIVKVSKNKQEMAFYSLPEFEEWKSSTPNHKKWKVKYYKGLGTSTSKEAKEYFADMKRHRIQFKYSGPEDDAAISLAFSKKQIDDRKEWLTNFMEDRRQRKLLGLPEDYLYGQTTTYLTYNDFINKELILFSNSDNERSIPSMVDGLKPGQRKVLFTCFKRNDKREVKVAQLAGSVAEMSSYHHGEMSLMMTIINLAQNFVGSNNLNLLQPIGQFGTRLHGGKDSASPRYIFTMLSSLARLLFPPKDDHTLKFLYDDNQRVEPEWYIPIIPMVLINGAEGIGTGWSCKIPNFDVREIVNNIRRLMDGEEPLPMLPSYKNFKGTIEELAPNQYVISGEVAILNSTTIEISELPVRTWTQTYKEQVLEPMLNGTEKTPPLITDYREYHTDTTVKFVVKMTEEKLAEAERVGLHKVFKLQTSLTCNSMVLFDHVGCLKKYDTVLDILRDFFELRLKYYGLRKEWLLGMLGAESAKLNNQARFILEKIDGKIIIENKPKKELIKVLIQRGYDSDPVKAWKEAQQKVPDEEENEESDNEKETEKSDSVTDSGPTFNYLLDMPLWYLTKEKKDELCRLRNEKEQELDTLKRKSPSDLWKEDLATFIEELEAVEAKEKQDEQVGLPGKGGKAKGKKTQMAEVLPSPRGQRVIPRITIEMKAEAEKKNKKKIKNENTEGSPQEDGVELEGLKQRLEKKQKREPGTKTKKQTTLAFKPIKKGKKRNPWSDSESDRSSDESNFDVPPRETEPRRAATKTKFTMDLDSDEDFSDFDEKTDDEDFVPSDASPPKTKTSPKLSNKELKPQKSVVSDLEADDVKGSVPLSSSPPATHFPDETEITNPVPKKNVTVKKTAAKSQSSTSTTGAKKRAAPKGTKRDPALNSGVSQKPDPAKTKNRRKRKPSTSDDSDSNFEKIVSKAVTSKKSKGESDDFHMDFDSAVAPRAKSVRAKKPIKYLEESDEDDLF

[2] = biological target: T1, DNA topoisomerase 2-alpha; experiment: Inhibition of human DNA topoisomerase IIalpha ATPase activity assessed as residual ATP hydrolysis at 15.625 uM measured up to 60 mins
[3] = biological target: T1, DNA topoisomerase 2-alpha; experiment: Inhibition of human DNA topoisomerase IIalpha assessed as reduction in enzyme-catalyzed supercoiling of relaxed circular pBR322 DNA by measuring linear DNA level at 3.9 uM after 60 mins by agarose gel electrophoresis; parameters: scale not given: the % may be the effect or the level left
[4] = biological target: T1, DNA topoisomerase 2-alpha; experiment: Inhibition of human DNA topoisomerase IIalpha ATPase activity assessed as residual ATP hydrolysis at 62.5 uM measured up to 60 mins
[5] = biological target: T1, DNA topoisomerase 2-alpha; experiment: Inhibition of human DNA topoisomerase IIalpha ATPase activity assessed as residual ATP hydrolysis at 3.9 uM measured up to 60 mins
[6] = biological target: T1, DNA topoisomerase 2-alpha; experiment: Inhibition of human DNA topoisomerase IIalpha assessed as decatenation of kDNA at 3.9 uM after 90 mins by ethidium bromide staining; parameters: scale not given: the % may be the effect or the level left
[7] = biological target: T1, DNA topoisomerase 2-alpha; experiment: Inhibition of human DNA topoisomerase IIalpha assessed as decatenation of kDNA at 62.5 uM after 90 mins by ethidium bromide staining; parameters: scale not given: the % may be the effect or the level left
[8] = biological target: T1, DNA topoisomerase 2-alpha; experiment: Inhibition of human DNA topoisomerase IIalpha ATPase activity assessed as residual ATP hydrolysis at 500 uM measured up to 60 mins
[9] = biological target: T1, DNA topoisomerase 2-alpha; experiment: Inhibition of human DNA topoisomerase IIalpha assessed as reduction in enzyme-catalyzed supercoiling of relaxed circular pBR322 DNA by measuring linear DNA level at 62.5 uM after 60 mins by agarose gel electrophoresis; parameters: scale not given: the % may be the effect or the level left
[10] = biological target: T1, DNA topoisomerase 2-alpha; experiment: Inhibition of human DNA topoisomerase IIalpha assessed as reduction in enzyme-catalyzed supercoiling of relaxed circular pBR322 DNA by measuring linear DNA level at 15.625 uM after 60 mins by agarose gel electrophoresis; parameters: scale not given: the % may be the effect or the level left
[11] = biological target: T1, DNA topoisomerase 2-alpha; experiment: Inhibition of human DNA topoisomerase IIalpha ATPase activity assessed as residual ATP hydrolysis at 31.5 uM measured up to 60 mins
[12] = biological target: T1, DNA topoisomerase 2-alpha; experiment: Inhibition of human DNA topoisomerase IIalpha assessed as reduction in enzyme-catalyzed supercoiling of relaxed circular pBR322 DNA by measuring linear DNA level at 31.5 uM after 60 mins by agarose gel electrophoresis; parameters: scale not given: the % may be the effect or the level left
[13] = biological target: T1, DNA topoisomerase 2-alpha; experiment: Inhibition of human DNA topoisomerase IIalpha assessed as decatenation of kDNA at 15.625 uM after 90 mins by ethidium bromide staining; parameters: scale not given: the % may be the effect or the level left
[14] = biological target: T1, DNA topoisomerase 2-alpha; experiment: Inhibition of human DNA topoisomerase IIalpha assessed as decatenation of kDNA at 31.5 uM after 90 mins by ethidium bromide staining; parameters: scale not given: the % may be the effect or the level left
[15] = biological target: T1, DNA topoisomerase 2-alpha; experiment: Inhibition of human DNA topoisomerase IIalpha assessed as decatenation of kDNA after 90 mins by ethidium bromide staining
[16] = biological target: T1, DNA topoisomerase 2-alpha; experiment: Inhibition of human DNA topoisomerase IIalpha assessed as decatenation of kDNA at 500 uM after 90 mins by ethidium bromide staining; parameters: scale not given: the % may be the effect or the level left
[17] = biological target: T1, DNA topoisomerase 2-alpha; experiment: Inhibition of human DNA topoisomerase IIalpha assessed as reduction in enzyme-catalyzed supercoiling of relaxed circular pBR322 DNA by measuring linear DNA level at 125 uM after 60 mins by agarose gel electrophoresis in presence of 62.5 uM of etoposide; parameters: scale not given: the % may be the effect or the level left
[18] = biological target: T1, DNA topoisomerase 2-alpha; experiment: Inhibition of human DNA topoisomerase IIalpha assessed as reduction in enzyme-catalyzed supercoiling of relaxed circular pBR322 DNA by measuring linear DNA level at 125 uM after 60 mins by agarose gel electrophoresis in presence of 50 uM of etoposide; parameters: scale not given: the % may be the effect or the level left
[19] = biological target: T1, DNA topoisomerase 2-alpha; experiment: Inhibition of human DNA topoisomerase IIalpha ATPase activity assessed as residual ATP hydrolysis at 125 uM measured up to 60 mins
[20] = Lipophilicity, log P of the compound; type: physicochemical; conditions: octanol/water
[21] = biological target: T1, DNA topoisomerase 2-alpha; experiment: Inhibition of human DNA topoisomerase IIalpha assessed as reduction in enzyme-catalyzed supercoiling of relaxed circular pBR322 DNA by measuring linear DNA level at 31.5 uM after 60 mins by agarose gel electrophoresis in presence of 50 uM of etoposide; parameters: scale not given: the % may be the effect or the level left
[22] = biological target: T1, DNA topoisomerase 2-alpha; experiment: Inhibition of human DNA topoisomerase IIalpha assessed as reduction in enzyme-catalyzed supercoiling of relaxed circular pBR322 DNA by measuring linear DNA level at 125 uM after 60 mins by agarose gel electrophoresis; parameters: scale not given: the % may be the effect or the level left
[23] = biological target: T1, DNA topoisomerase 2-alpha; experiment: Inhibition of human DNA topoisomerase IIalpha assessed as reduction in enzyme-catalyzed supercoiling of relaxed circular pBR322 DNA by measuring linear DNA level at 500 uM after 60 mins by agarose gel electrophoresis in presence of 62.5 uM of etoposide; parameters: scale not given: the % may be the effect or the level left
[24] = biological target: T1, DNA topoisomerase 2-alpha; experiment: Inhibition of human DNA topoisomerase IIalpha assessed as reduction in enzyme-catalyzed supercoiling of relaxed circular pBR322 DNA by measuring linear DNA level at 31.5 uM after 60 mins by agarose gel electrophoresis in presence of 62.5 uM of etoposide; parameters: scale not given: the % may be the effect or the level left
[25] = biological target: T1, DNA topoisomerase 2-alpha; experiment: Inhibition of human DNA topoisomerase IIalpha assessed as reduction in enzyme-catalyzed supercoiling of relaxed circular pBR322 DNA by measuring linear DNA level at 500 uM after 60 mins by agarose gel electrophoresis in presence of 50 uM of etoposide; parameters: scale not given: the % may be the effect or the level left
[26] = biological target: T1, DNA topoisomerase 2-alpha; experiment: Inhibition of human DNA topoisomerase IIalpha assessed as reduction in enzyme-catalyzed supercoiling of relaxed circular pBR322 DNA by measuring linear DNA level at 500 uM after 60 mins by agarose gel electrophoresis; parameters: scale not given: the % may be the effect or the level left
[27] = biological target: T1, DNA topoisomerase 2-alpha; experiment: Inhibition of human DNA topoisomerase IIalpha assessed as reduction in enzyme-catalyzed supercoiling of relaxed circular pBR322 DNA by measuring linear DNA level at 3.9 uM after 60 mins by agarose gel electrophoresis in presence of 62.5 uM of etoposide; parameters: scale not given: the % may be the effect or the level left
[28] = biological target: T1, DNA topoisomerase 2-alpha; experiment: Inhibition of human DNA topoisomerase IIalpha assessed as reduction in enzyme-catalyzed supercoiling of relaxed circular pBR322 DNA by measuring linear DNA level at 50 uM after 60 mins by agarose gel electrophoresis; parameters: scale not given: the % may be the effect or the level left
[29] = biological target: T1, DNA topoisomerase 2-alpha; experiment: Inhibition of human DNA topoisomerase IIalpha assessed as decatenation of kDNA at 125 uM after 90 mins by ethidium bromide staining; parameters: scale not given: the % may be the effect or the level left
[30] = biological target: T1, DNA topoisomerase 2-alpha; experiment: Inhibition of human DNA topoisomerase IIalpha assessed as reduction in enzyme-catalyzed supercoiling of relaxed circular pBR322 DNA by measuring linear DNA level at 3.9 uM after 60 mins by agarose gel electrophoresis in presence of 50 uM of etoposide; parameters: scale not given: the % may be the effect or the level left
[31] = biological target: T1, DNA topoisomerase 2-alpha; experiment: Inhibition of human DNA topoisomerase IIalpha assessed as reduction in enzyme-catalyzed supercoiling of relaxed circular pBR322 DNA by measuring linear DNA level after 60 mins by agarose gel electrophoresis

IC50 [1]: > 1000 µM
SMILES: COc1nc(N[C@H](CCC(=O)O)C(=O)O)nc(OC)n1

IC50 [1]: > 1000 µM
SMILES: O=c1nc(-c2ccccc2)nc(S)[nH]1

IC50 [1]: > 1000 µM
SMILES: COc1nc(N[C@H](CCC(=O)OCc2ccccc2)C(=O)OCc2ccccc2)nc(OC)n1

Activity [2]: 0%
Activity [3]: 1.7%
Activity [4]: 0%
Activity [5]: 0%
Activity [6]: 77.4%
Activity [7]: 6.05%
Activity [8]: 0% and 18.7%
Activity [9]: 2.1%
Activity [10]: 3.1%
Activity [11]: 0%
Activity [12]: 2.51%
Activity [13]: 18.2%
Activity [14]: 10.8%
SMILES: CC(C(C)N1CC(=O)NC(=O)C1)N1CC(=O)NC(=O)C1 (configuration not stated)

IC50 [1]: 153 µM
SMILES: N#Cc1ccc(CSc2nc(SCc3ccccc3)nc(=O)[nH]2)cc1

IC50 [1]: 359 µM
SMILES: O=c1nc(SCc2ccccc2)nc(SCc2ccc([N+](=O)[O-])cc2)[nH]1

IC50 [1]: > 1000 µM
SMILES: COc1ccc(CNc2nc(Cl)nc(Nc3ccccc3CCO)n2)cc1

IC50 [1]: > 1000 µM
SMILES: COc1ccc(CNc2nc(Cl)nc(Cl)n2)cc1

IC50 [1]: > 1000 µM
SMILES: COc1ccc(CSc2nc(SCc3ccccc3)nc(=O)[nH]2)cc1

IC50 [1]: 522 µM
SMILES: N#Cc1ccccc1CSc1nc(SCc2ccccc2)nc(=O)[nH]1

IC50 [1]: > 1000 µM
SMILES: Cc1ccc(-c2nc(S)[nH]c(=O)n2)cc1

IC50 [1]: > 1000 µM
SMILES: COc1nc(Nc2ccccc2C(=O)O)nc(OC)n1

IC50 [1]: 377 µM
SMILES: O=c1nc(SCc2ccccc2)nc(SCc2ccccc2[N+](=O)[O-])[nH]1

IC50 [1]: > 1000 µM
SMILES: CCc1ccccc1Nc1nc(Cl)nc(Cl)n1

IC50 [1]: 528 µM
SMILES: N#Cc1cccc(CSc2nc(SCc3ccccc3)nc(=O)[nH]2)c1

IC50 [1]: > 1000 µM
SMILES: Nc1ccc(-c2nc(=S)[nH]c(=O)[nH]2)cc1

IC50 [1]: > 1000 µM
SMILES: O=c1nc(SCc2ccccc2)nc(SCC2CCC2)[nH]1

IC50 [1]: 488 µM
SMILES: O=c1nc(SCc2ccccc2)nc(SCc2cccc([N+](=O)[O-])c2)[nH]1

IC50 [1]: > 1000 µM
SMILES: CN(CCO)c1nc(Cl)nc(Nc2ccccc2CCO)n1

IC50 [1]: > 1000 µM
SMILES: O=C(O)CSC1N=C(SCc2ccccc2)NC(=O)N1 (configuration not stated)

inhibition [15]: Dose-dependent effect
Activity [16]: 0.115%
Activity [17]: 16.3%
Activity [18]: 9.2%
Activity [3]: 3%
Activity [19]: 0%
logP [20]: 2.7
Activity [5]: 86.9%
Activity [21]: 33.5%
Activity [6]: 91.5%
Activity [22]: 1.6%
Activity [23]: 1.4%
Activity [24]: 18.5%
Activity [25]: 5.3%
Activity [26]: 2.3%
Activity [27]: 20.6%
Activity [28]: 34.6%
Activity [8]: 0%
Activity [29]: 8.55%
Activity [30]: 34.3%
Activity [9]: 2.1% and 18.1%
inhibition [31]: Dose-dependent effect
Activity [10]: 3.1%
Activity [11]: 93.7%
Activity [12]: 2.3%
IC50 [1]: 72.5 µM
Activity [14]: 92.6%
SMILES: O=c1nc(SCc2ccccc2)nc(SCc2ccccc2F)[nH]1

IC50 [1]: > 1000 µM
SMILES: O=C1NC(SCc2ccccc2)=NC(Sc2ccccc2)N1 (configuration not stated)

IC50 [1]: > 1000 µM
SMILES: O=C(O)c1ccccc1Sc1nc(Cl)nc(Cl)n1

IC50 [1]: > 1000 µM
SMILES: O=c1nc(-c2cccc([N+](=O)[O-])c2)nc(S)[nH]1
